Literature values as cited in US7585978B2, “Processes of manufacturing substituted-1,4-dihydropyridines, improved aqueous solutions thereof, and processes of manufacturing the solutions” (Navinta LLC, priority 2006, dated 2009).
Entries after “also recorded” stand apart in the source; their conditions may differ. Counter-ions that a name gives are not always drawn.

Assays:
[1] = hydrochloride

pKa (first of three pKa values) | pKa (second of three pKa values) | SMILES | solubility in water [1]
2.18 | 9.09 | N=C(N)NCCC[C@H](N)C(=O)O [L-arginine] | –
– | – | COC(=O)C1=C(C)NC(C)=C(C(=O)OCCN(C)Cc2ccccc2)C1c1cccc([N+](=O)[O-])c1 (stereo not drawn) [nicardipine hydrochloride] | poorly soluble in water; also recorded: very poorly soluble in water
